# Patent US9434693B2, “Substituted pyrazoles as N-type calcium channel blockers” (Janssen Pharmaceutica NV, priority 2012, dated 2016)
# Counter-ions that a name gives are not always drawn.
# Molecular target: N-type calcium channel (α1B (Cav2.2), β3 and α2δ subunits) in stable HEK cell line (Homo sapiens (Human), UniProt Q00975)
# Experiment: Functional assay (FDSS calcium mobilization): antagonism of N-type calcium channel
# Assay type: cell-based
# Settings: for IC50: KCl (50 mM) depolarization, six-point concentration-response; for inhibition at 0.33 µM: HEK293; for inhibition at 0.33 µM / % Inhibition (%) at 0.33 μM: FDSS, 0.33 μM compound
# Description: A stable cell line (HEK parent) co-expressing the α1B (Cav2.2), β3 and α2δ subunits of the N-type calcium channel subunits was used. These cells were routinely grown as monolayers in low glucose-containing Dulbecco's Modified Eagle Medium supplemented with 10% FBS, 2 mM L-glutamine, 100 I.U./mL penicillin, 100 μg/mL streptomycin, 400 μg/mL G418 and 200 μg/mL Zeocin (split ratio=1:5). Cells were maintained in 5% CO2 at 37° C. Compounds of Formula (I) were prepared as 10 mM stocks in DMSO from neat compound, if available. Otherwise, the 5 or 10 mM DMSO stock solutions provided in-house were used.
# Calcium mobilization responses to KCl depolarization were evaluated by measuring the intensity of calcium-mediated fluorescent signal in the presence of BD Calcium Assay Dye (BD Biosciences, Franklin Lakes, N.J., U.S.A.), utilizing a Functional Drug Screening System (FDSS) by Hamamatsu Corporation (Bridgewater, N.J. U.S.A.).
# Twenty-four hr prior to assay, cells were seeded in clear-base poly-D-lysine-coated 384-well plates (BD Biosciences) at a density of 5,000 cells per well in culture medium and grown overnight in 5% CO2 at 37° C. On the day of assay, growth media were removed, and cells were loaded with BD calcium assay dye (BD Biosciences) for 35 min at 37° C. under 5% CO2 and then for 25 min at room temp. Utilizing the FDSS, cells were exposed to representative compounds of Formula (I) at varying concentrations, and intracellular calcium was measured for 5 min prior to the addition of 50 mM KCl for an additional 3 min of measurement.
# IC50 values for representative compounds of Formula (I) were determined from six-point concentration-response experiments and represent the concentration of said compound required to inhibit 50% of the maximal response. Maximal fluorescence intensity (FI) achieved upon addition of 50 mM KCl was exported from the FDSS software and further analyzed using GraphPad Prism 3.02 (Graph Pad Software Inc., San Diego, Calif., U.S.A.). Data were normalized to the maximum average counts from quadruplicate wells for each condition in the presence of 50 mM KCl and to the minimum average counts in the presence of buffer. Theoretical curves were generated using nonlinear regression curve-fitting analysis of either sigmoidal concentration-response or sigmoidal concentration-response (variable slope), and the IC50 values with the best-fit curve determined by GraphPad Prism were reported.
# N-type calcium channel (α1B (Cav2.2), β3 and α2δ subunits) in stable HEK cell line, sequence (Q00975 whole entry): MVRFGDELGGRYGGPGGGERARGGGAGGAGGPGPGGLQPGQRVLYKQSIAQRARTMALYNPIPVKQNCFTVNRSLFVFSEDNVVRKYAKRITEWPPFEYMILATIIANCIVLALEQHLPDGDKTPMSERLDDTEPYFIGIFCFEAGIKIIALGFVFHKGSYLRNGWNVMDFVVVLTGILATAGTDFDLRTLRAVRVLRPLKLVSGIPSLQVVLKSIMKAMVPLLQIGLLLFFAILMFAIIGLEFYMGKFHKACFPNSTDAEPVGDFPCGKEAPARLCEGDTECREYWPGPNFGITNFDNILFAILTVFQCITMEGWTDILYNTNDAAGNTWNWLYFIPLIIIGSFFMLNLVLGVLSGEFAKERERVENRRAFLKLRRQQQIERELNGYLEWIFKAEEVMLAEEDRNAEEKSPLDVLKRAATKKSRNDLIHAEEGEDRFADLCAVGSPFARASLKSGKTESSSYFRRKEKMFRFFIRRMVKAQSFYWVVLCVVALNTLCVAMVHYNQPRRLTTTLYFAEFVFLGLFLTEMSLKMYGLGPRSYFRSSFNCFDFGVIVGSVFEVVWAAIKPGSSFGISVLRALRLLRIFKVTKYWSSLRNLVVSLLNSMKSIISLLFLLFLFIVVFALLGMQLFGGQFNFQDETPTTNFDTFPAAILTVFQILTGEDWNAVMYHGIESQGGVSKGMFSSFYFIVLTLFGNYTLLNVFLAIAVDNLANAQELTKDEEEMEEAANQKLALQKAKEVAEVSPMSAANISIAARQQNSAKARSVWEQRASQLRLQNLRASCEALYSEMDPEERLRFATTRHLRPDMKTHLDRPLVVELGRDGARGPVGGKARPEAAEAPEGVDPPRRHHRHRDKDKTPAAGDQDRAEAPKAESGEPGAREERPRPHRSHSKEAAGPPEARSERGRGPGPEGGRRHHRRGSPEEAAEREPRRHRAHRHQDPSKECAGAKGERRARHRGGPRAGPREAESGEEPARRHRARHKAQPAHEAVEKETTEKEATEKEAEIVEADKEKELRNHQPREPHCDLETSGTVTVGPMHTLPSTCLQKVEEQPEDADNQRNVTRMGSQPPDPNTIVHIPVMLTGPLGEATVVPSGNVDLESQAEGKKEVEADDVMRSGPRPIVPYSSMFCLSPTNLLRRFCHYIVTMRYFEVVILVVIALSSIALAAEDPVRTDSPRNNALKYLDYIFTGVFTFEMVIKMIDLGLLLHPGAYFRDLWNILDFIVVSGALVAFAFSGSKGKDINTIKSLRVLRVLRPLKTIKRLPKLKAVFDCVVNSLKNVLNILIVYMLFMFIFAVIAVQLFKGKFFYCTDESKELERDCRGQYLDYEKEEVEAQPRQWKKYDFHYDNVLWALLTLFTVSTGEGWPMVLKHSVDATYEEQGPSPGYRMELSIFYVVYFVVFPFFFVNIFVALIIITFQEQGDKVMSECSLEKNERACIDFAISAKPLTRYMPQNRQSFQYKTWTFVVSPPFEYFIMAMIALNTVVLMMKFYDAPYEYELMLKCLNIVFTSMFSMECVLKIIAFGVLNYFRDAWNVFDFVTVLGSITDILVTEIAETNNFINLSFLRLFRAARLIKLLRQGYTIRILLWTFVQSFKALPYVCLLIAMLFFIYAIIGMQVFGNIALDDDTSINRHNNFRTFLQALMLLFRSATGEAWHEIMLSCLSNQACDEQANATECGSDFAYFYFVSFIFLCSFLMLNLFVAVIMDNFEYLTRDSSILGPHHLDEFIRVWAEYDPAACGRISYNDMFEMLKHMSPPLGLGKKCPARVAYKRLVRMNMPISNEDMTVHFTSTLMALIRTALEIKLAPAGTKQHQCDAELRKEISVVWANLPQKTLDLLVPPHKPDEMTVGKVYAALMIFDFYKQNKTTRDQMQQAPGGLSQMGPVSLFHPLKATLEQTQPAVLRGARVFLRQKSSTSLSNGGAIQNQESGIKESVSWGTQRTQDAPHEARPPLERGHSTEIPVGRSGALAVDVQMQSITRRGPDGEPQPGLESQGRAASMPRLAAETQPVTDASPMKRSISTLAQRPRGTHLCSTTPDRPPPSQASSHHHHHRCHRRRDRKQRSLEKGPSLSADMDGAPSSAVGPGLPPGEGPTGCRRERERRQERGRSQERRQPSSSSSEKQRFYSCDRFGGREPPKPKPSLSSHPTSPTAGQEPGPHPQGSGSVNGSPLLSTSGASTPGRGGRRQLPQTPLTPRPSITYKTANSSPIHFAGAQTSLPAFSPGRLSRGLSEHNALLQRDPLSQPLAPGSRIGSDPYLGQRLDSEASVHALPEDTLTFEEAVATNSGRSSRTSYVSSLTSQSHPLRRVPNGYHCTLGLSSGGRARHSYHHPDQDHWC
# N-type calcium channel (α1B (Cav2.2), β3 and α2δ subunits) in stable HEK cell line, sequence (P54284 whole entry partner): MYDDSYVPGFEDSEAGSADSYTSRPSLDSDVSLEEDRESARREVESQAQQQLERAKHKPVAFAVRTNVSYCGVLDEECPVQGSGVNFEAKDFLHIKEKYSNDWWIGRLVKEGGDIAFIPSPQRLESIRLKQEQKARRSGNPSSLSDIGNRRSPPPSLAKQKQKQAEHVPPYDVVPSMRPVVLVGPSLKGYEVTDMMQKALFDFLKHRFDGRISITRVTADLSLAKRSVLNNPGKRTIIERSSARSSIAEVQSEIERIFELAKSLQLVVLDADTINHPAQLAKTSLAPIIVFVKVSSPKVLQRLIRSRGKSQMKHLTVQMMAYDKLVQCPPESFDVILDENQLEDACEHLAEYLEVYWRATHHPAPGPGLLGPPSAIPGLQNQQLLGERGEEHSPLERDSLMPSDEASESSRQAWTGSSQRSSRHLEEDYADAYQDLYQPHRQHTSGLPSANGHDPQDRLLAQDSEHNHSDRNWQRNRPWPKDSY
# N-type calcium channel (α1B (Cav2.2), β3 and α2δ subunits) in stable HEK cell line, sequence (P54289 25-1103 partner): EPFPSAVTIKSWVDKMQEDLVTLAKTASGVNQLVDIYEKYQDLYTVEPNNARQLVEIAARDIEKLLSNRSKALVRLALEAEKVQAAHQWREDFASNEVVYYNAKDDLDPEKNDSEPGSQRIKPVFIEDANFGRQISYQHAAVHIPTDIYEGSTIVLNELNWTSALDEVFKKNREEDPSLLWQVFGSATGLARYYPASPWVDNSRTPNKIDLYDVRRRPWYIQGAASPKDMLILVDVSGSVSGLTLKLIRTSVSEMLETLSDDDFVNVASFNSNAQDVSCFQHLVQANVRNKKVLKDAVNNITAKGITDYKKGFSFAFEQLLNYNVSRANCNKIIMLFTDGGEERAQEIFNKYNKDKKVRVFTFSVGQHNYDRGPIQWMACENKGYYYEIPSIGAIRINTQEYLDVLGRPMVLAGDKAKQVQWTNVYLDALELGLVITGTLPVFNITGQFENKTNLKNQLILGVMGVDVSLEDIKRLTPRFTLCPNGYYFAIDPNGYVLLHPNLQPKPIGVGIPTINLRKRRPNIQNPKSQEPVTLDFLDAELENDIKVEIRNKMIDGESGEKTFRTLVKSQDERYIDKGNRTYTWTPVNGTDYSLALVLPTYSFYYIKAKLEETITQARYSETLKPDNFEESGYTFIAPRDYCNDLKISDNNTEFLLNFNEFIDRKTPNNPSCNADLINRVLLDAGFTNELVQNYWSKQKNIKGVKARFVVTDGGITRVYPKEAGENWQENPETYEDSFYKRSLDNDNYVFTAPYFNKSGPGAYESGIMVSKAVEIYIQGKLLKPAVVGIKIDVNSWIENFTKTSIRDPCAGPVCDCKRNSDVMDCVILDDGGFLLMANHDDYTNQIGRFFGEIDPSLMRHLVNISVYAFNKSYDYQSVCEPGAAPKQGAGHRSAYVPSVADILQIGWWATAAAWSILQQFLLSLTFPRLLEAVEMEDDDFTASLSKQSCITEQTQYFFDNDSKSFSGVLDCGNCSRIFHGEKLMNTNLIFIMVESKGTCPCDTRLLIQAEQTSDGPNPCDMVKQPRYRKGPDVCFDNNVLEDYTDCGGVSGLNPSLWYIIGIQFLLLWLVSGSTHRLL
SMILES,IC50 [nM],inhibition at 0.33 µM [%],% Inhibition (%) at 0.33 μM [%]
"CCc1ccccc1-n1nc(OC2CCN(C(=O)OC(C)(C)C)CC2)cc1-c1ccc(Cl)cc1 [Compound 18, tert-Butyl 4-{[5-(4-chlorophenyl)-1-(2-ethylphenyl)-1H-pyrazol-3-yl]oxy}piperidine-1-carboxylate]",50,,
"COc1ccccc1-n1nc(OC2CC(C)(C)C(=O)C(C)(C)C2)cc1-c1ccc(Cl)cc1 [Compound 41, 4-{[5-(4-Chlorophenyl)-1-(2-methoxyphenyl)-1H-pyrazol-3-yl]oxy}-2,2,6,6-tetramethylcyclohexanone]",,92,
"COc1ccccc1-n1nc(OC2CC(C)(C)C(O)C(C)(C)C2)cc1-c1ccc(Cl)cc1 (centres unmarked) [Compound 42, 4-{[5-(4-Chlorophenyl)-1-(2-methoxyphenyl)-1H-pyrazol-3-yl]oxy}-2,2,6,6-tetramethylcyclohexanol]",39,78,
"COc1ccccc1-n1nc(OC2CN(C(=O)OC(C)(C)C)C2)cc1-c1ccc(Cl)cc1 [Compound 22, tert-Butyl 3-{[5-(4-chlorophenyl)-1-(2-methoxyphenyl)-1H-pyrazol-3-yl]oxy}azetidine-1-carboxylate]",67,90,
"COc1ccccc1-n1nc(OC2CN(S(=O)(=O)C(C)C)C2)cc1-c1ccc(Cl)cc1 [Compound 25, 5-(4-Chlorophenyl)-1-(2-methoxyphenyl)-3-({1-[(1-methylethyl)sulfonyl]azetidin-3-yl}oxy)-1H-pyrazole]",36,92,
"CC(C)(C)Oc1ccccc1-n1nc(OC2CCN(S(C)(=O)=O)CC2)cc1-c1ccc(Cl)cc1 [Compound 24, 4-{[1-(2-tert-Butoxyphenyl)-5-(4-chlorophenyl)-1H-pyrazol-3-yl]oxy}-1-(methylsulfonyl)piperidine]",,57,
"CC(C)Oc1ccccc1-n1nc(OC2CCN(S(=O)(=O)C(C)C)CC2)cc1-c1ccc(Cl)cc1 [Compound 28, 4-({5-(4-Chlorophenyl)-1-[2-(1-methylethoxy)phenyl]-1H-pyrazol-3-yl}oxy)-1-[(1-methylethyl)sulfonyl]piperidine]",7,96,
"COc1ccccc1-n1nc(OC2CCN(CC(F)(F)F)CC2)cc1-c1ccc(Cl)cc1 [Compound 8, 4-{[5-(4-Chlorophenyl)-1-(2-methoxyphenyl)-1H-pyrazol-3-yl]oxy}-1-(2,2,2-trifluoroethyl)piperidine]",31,,
"COc1ccccc1-n1nc(OC2CC(C)(C)S(=O)(=O)C(C)(C)C2)cc1-c1ccc(Cl)cc1 [Compound 37, 5-(4-Chlorophenyl)-1-(2-methoxyphenyl)-3-[(2,2,6,6-tetramethyl-1,1-dioxidotetrahydro-2H-thiopyran-4-yl)oxy]-1H-pyrazole]",1.9,98,
"COc1ccccc1-n1nc(OC2CN(C(=O)c3ccccc3)C2)cc1-c1ccc(Cl)cc1 [Compound 27, 5-(4-Chlorophenyl)-1-(2-methoxyphenyl)-3-{[1-(phenylcarbonyl)azetidin-3-yl]oxy}-1H-pyrazole]",85,87,
"COc1ccccc1-n1nc(OC2CCS(=O)(=O)CC2)cc1-c1ccc(Cl)cc1 [Compound 10, 5-(4-Chlorophenyl)-3-[(1,1-dioxidotetrahydro-2H-thiopyran-4-yl)oxy]-1-(2-methoxyphenyl)-1H-pyrazole]",30,,
"COc1ccccc1-n1nc(O[C@H]2CC[C@@H](N)CC2)cc1-c1ccc(Cl)cc1 [Compound 12, cis-4-{[5-(4-Chlorophenyl)-1-(2-methoxyphenyl)-1H-pyrazol-3-yl]oxy}cyclohexanamine trifluoroacetate]",400,,
"COc1ccccc1-n1nc(O[C@H]2CC(C)(C)[S@@+]([O-])C(C)(C)C2)cc1-c1ccc(Cl)cc1.O=C(O)C(F)(F)F [Compound 39, (1 s,4s)-4-((5-(4-chlorophenyl)-1-(2-methoxyphenyl)-1H-pyrazol-3-yl)oxy)-2,2,6,6-tetramethyltetrahydro-2H-thiopyran 1-oxide trifluoroacetate]",1.5,,99
"COc1ccccc1-n1nc(OC2CCN(S(=O)(=O)C(F)(F)F)CC2)cc1-c1ccc(Cl)cc1 [Compound 14, 4-{[5-(4-Chlorophenyl)-1-(2-methoxyphenyl)-1H-pyrazol-3-yl]oxy}-1-[(trifluoromethyl)sulfonyl]piperidine]",24,,
"COc1ccccc1-n1nc(OC2CCC(=O)CC2)cc1-c1ccc(Cl)cc1 [Compound 2, 4-{[5-(4-Chlorophenyl)-1-(2-methoxyphenyl)-1H-pyrazol-3-yl]oxy}cyclohexanone]",28,,
"COc1ccc(-c2cc(OC3CC(C)(C)S(=O)(=O)C(C)(C)C3)nn2-c2ccccc2OC)cc1 [Compound 33, 1-(2-Methoxyphenyl)-5-(4-methoxyphenyl)-3-[(2,2,6,6-tetramethyl-1,1-dioxidotetrahydro-2H-thiopyran-4-yl)oxy]-1H-pyrazole]",3,94,
COc1ccccc1-n1nc(O[C@H]2CC(C)(C)[S@+]([O-])C(C)(C)C2)cc1-c1ccc(C#N)cc1 [Compound 46],14,,90
"COc1ccccc1-n1nc(OC2CC(C)(C)S(=O)(=O)C(C)(C)C2)cc1-c1ccc(C#N)cc1 [Compound 45, 4-{1-(2-Methoxyphenyl)-3-[(2,2,6,6-tetramethyl-1,1-dioxidotetrahydro-2H-thiopyran-4-yl)oxy]-1H-pyrazol-5-yl}benzonitrile]",2.4,99,
"COc1ccccc1-n1nc(OC2CCN(C(=O)N(C)C)CC2)cc1-c1ccc(Cl)cc1 [Compound 4, 4-{[5-(4-Chlorophenyl)-1-(2-methoxyphenyl)-1H-pyrazol-3-yl]oxy}-N,N-dimethylpiperidine-1-carboxamide]",14,,
"COc1ccc(-c2cc(O[C@H]3CC(C)(C)[S@+]([O-])C(C)(C)C3)nn2-c2ccccc2OC)cc1 [Compound 34, (1r,4r)-4-((1-(2-methoxyphenyl)-5-(4-methoxyphenyl)-1H-pyrazol-3-yl)oxy)-2,2,6,6-tetramethyltetrahydro-2H-thiopyran 1-oxide]",4.5,,94
"COc1ccccc1-n1nc(OC2CCOCC2)cc1-c1ccc(Cl)cc1 [Compound 6, 5-(4-Chlorophenyl)-1-(2-methoxyphenyl)-3-(tetrahydro-2H-pyran-4-yloxy)-1H-pyrazole]",15,98,
"COc1ccccc1-n1nc(OC2CCN(S(C)(=O)=O)CC2)cc1-c1ccc(Cl)cc1 [Compound 5, 4-{[5-(4-Chlorophenyl)-1-(2-methoxyphenyl)-1H-pyrazol-3-yl]oxy}-1-(methylsulfonyl)piperidine]",15,,
"COc1ccc(-c2cc(OC3CC(C)(C)SC(C)(C)C3)nn2-c2ccccc2OC)cc1 [Compound 32, 1-(2-Methoxyphenyl)-5-(4-methoxyphenyl)-3-[(2,2,6,6-tetramethyltetrahydro-2H-thiopyran-4-yl)oxy]-1H-pyrazole]",6,93,
COc1ccccc1-n1nc(OCC2C(C)(C)OC2(C)C)cc1-c1ccc(Cl)cc1 [Compound 40],3.1,95,
"COc1ccccc1-n1nc(OC2CCN(C(=O)C(F)(F)F)CC2)cc1-c1ccc(Cl)cc1 [Compound 9, 4-{[5-(4-Chlorophenyl)-1-(2-methoxyphenyl)-1H-pyrazol-3-yl]oxy}-1-(trifluoroacetyl)piperidine]",31.4,,
"COc1ccccc1-n1nc(OC2CC(C)(C)SC(C)(C)C2)cc1-c1ccc(Cl)cc1 [Compound 36, 5-(4-Chlorophenyl)-1-(2-methoxyphenyl)-3-[(2,2,6,6-tetramethyltetrahydro-2H-thiopyran-4-yl)oxy]-1H-pyrazole]",5.9,91,
"COc1ccccc1-n1nc(OC2CCSCC2)cc1-c1ccc(Cl)cc1 [Compound 7, 5-(4-Chlorophenyl)-1-(2-methoxyphenyl)-3-(tetrahydro-2H-thiopyran-4-yloxy)-1H-pyrazole]",28,,
"COc1ccccc1-n1nc(OC2CCN(C(C)=O)CC2)cc1-c1ccc(Cl)cc1 [Compound 3, 1-Acetyl-4-{[5-(4-chlorophenyl)-1-(2-methoxyphenyl)-1H-pyrazol-3-yl]oxy}piperidine]",26,,
"COc1ccccc1-n1nc(OC2CCC(F)(F)CC2)cc1-c1ccc(Cl)cc1 [Compound 16, 5-(4-Chlorophenyl)-3-[(4,4-difluorocyclohexyl)oxy]-1-(2-methoxyphenyl)-1H-pyrazole]",41,,
